Experimental data published in BindingDB's records for doi:10.1021/acs.jmedchem.7b00875 (University of Florida, 2017).

Target: Neuronal acetylcholine receptor subunit alpha-7 (Homo sapiens, UniProt P36544)
Assay: Partial agonist activity at human alpha7 nAChR expressed in Xenopus laevis oocytes assessed as induction of maximum current response administered for 12 secs followed by washout period for 181 secs by voltage clamp technique

Neuronal acetylcholine receptor subunit alpha-7, sequence (P36544 whole entry): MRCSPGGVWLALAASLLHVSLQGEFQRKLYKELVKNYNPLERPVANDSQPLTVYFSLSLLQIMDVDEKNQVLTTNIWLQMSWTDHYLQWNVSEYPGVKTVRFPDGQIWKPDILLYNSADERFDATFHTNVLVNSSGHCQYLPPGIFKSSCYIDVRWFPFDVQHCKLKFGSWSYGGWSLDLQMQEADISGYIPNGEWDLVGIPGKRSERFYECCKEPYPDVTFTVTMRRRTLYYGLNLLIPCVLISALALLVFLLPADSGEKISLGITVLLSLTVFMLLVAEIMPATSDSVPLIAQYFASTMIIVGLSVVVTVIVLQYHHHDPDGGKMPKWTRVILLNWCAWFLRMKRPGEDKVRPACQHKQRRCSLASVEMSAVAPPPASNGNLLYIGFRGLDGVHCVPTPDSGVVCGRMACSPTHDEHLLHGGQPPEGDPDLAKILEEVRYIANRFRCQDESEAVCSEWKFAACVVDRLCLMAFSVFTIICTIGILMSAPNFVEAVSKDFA

**Q.** For CC[N+]1(CC)CCN(c2ccccc2)CC1, which EC50 is on record?
**A.** The EC50 was 221 µM.
